Measurements reported in paper PMC5416915, “Elucidation of salicylate attachment in celesticetin biosynthesis opens the door to create a library of more efficient hybrid lincosamide antibiotics” (Chemical Science, 2017).

Columns and labels:
Format in all cases: biochemical
CcbF [1] = biological target: T1, CcbF (Streptomyces caelestis, UniProt E9JES7); assay: LC-MS, in vitro cascade with Ccb5 with or without Ccb4; conditions: PLP-dependent; coupled with Ccb5
T1 construct: recombinant celesticetin biosynthetic protein; construct not described in main text
T1 sequence (E9JES7 1-416): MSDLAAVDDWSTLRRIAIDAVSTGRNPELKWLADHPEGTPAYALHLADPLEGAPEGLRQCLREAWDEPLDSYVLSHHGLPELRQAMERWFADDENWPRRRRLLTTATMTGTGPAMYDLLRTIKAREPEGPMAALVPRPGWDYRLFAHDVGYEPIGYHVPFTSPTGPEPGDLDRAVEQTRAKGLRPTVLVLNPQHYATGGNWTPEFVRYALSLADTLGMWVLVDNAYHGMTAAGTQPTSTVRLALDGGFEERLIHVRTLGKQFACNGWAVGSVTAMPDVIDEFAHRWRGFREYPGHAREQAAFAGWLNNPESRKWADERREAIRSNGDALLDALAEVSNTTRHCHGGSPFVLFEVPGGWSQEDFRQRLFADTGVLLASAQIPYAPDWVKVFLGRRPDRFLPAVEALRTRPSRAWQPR

CcbF [2] = biological target: T1, CcbF; assay: LC-MS, in vitro cascade with Ccb5 and Ccb4; conditions: PLP-dependent; coupled with Ccb5 and Ccb4 to intermediate 45
Ccb2 = biological target: T2, Ccb2 (Streptomyces caelestis, UniProt E9JET8); assay: LC-MS detection of acyl-AMP conjugate; conditions: ATP
T2 construct: recombinant, heterologously produced in and purified from E. coli; 548 residues
T2 sequence (E9JET8 1-548): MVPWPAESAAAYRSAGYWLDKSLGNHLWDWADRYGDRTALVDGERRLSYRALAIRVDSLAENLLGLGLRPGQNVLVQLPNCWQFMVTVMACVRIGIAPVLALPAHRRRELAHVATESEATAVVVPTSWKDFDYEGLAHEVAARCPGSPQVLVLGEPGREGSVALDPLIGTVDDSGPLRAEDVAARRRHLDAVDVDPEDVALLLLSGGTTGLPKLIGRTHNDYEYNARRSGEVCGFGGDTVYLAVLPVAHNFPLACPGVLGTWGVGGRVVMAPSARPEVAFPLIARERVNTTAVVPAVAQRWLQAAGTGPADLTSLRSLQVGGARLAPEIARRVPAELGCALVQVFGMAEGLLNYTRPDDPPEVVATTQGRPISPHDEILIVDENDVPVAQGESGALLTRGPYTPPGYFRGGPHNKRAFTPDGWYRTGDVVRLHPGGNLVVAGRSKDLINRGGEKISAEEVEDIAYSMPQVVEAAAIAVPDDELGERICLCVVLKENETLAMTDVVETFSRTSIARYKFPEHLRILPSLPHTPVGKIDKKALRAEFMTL

CCC[C@H]1CN[C@H](C(=O)N[C@@H]([C@H]2O[C@H](SC[C@H](N)C(=O)O)[C@H](O)[C@@H](O)[C@H]2O)[C@@H](C)O)C1 [1a, lincomycin intermediate 1a]
LC-MS, in vitro cascade with Ccb5 with or without Ccb4 (CcbF [1]): Lincomycin intermediates 1a and 2a processed by celesticetin biosynthetic proteins

CCC[C@@H]1C[C@@H](C(=O)N[C@@H]([C@H]2O[C@H](SC[C@H](N)C(=O)O)[C@H](O)[C@@H](O)[C@H]2O)[C@@H](C)O)N(C)C1 [2a, lincomycin intermediate 2a]
LC-MS, in vitro cascade with Ccb5 and Ccb4 (CcbF [2]): in vitro processing of lincomycin intermediate 2a by the celesticetin biosynthetic proteins CcbF, Ccb5, and Ccb4

O=C(O)c1ccccc1 [compound 6, benzoic acid]
LC-MS detection of acyl-AMP conjugate (Ccb2): We detected products
